Test results from patent publication US20220338473A1, “USE OF BENZYL ALCOHOL AS A HERBICIDE” (INNOVI, priority 2019, published 2022).

Tests used:
Assay type in all cases: in vivo
[1] = test system: White petunia; experiment: Foliar application (spraying) on potted plants; conditions: 0.1 g benzyl alcohol (5 L/Ha) in 6 g total (300 L/Ha)
Experimental: (§1) Assays were carried out on different plants by foliar application (spraying) to evaluate the herbicide function, its foliar application mode and its speed of action.
(§2) The assays were carried out on potted plants. The application of the product is carried out with a trigger spray bottle which makes it possible to spray 1 g of product per spraying as microdroplets.
(§3) The plants were sprinkled with different quantities of water containing different quantities of pure benzyl alcohol (PanReac AppliChem—ITW Reagents). The untreated (control) plants are sprinkled with the same total quantity, but of water only.
(§4) The collapsing of the plant, the colour intensity of the plant and the diameter of the plant were measured in the following manner: • Collapsing of the plant: the collapsing was evaluated on a scale of 1 to 5. A score of 5 corresponds to the state of the plant habit at T0 and 1 corresponds to a total collapsing of the plant. • Colour intensity: the colour of the plant (leaves and flowers) is evaluated on a scale of 1 to 5. A score of 5 corresponds to the colour intensity of the plant at T0 and a score of 1 corresponds to a total discoloration of the plant (white or brown according to the type of plant). • Diameter of the plant: the diameter of the plant corresponds to the surface area occupied by the plant seen from above and is evaluated by a score of 1 to 5. A score of 5 corresponds to the diameter of the plant at T0 and a score of 1 corresponds to the size of the pot (or smaller than this).

[2] = test system: Carnation; experiment: Foliar application (spraying) on potted plants; conditions: 8 g benzyl alcohol (400 L/Ha) in 16 g total (800 L/ha)
Experimental: as §1, §2, §3, §4

[3] = test system: Pink petunia; experiment: Foliar application (spraying) on potted plants; conditions: 0.4 g benzyl alcohol (20 L/Ha) in 4 g total (200 L/ha)
Experimental: as §1, §2, §3, §4

[4] = test system: Lobelia; experiment: Foliar application (spraying) on potted plants; conditions: 6 g benzyl alcohol (300 L/Ha) in 6 g total (300 L/ha)
Experimental: as §1, §2, §3, §4

[5] = test system: Purple horned pansy; experiment: Foliar application (spraying) on potted plants; conditions: 1 g benzyl alcohol (50 L/Ha) in 12 g total (600 L/Ha)
Experimental: as §1, §2, §3, §4

[6] = test system: Ivy; experiment: Foliar application (spraying) on potted plants; conditions: 16 g benzyl alcohol (800 L/Ha) in 20 g total (1000 L/Ha)
Experimental: as §1, §2, §3, §4

[7] = test system: Sage; experiment: Foliar application (spraying) on potted plants; conditions: 4 g benzyl alcohol (200 L/Ha) in 10 g total (500 L/Ha)
Experimental: as §1, §2, §3, §4

[8] = test system: Dahlia; experiment: Foliar application (spraying) on potted plants; conditions: 2 g benzyl alcohol (100 L/Ha) in 20 g total (1000 L/ha)
Experimental: as §1, §2, §3, §4

[9] = test system: White horned pansy; experiment: Foliar application (spraying) on potted plants; conditions: 12 g benzyl alcohol (600 L/Ha) in 12 g total (600 L/Ha)
Experimental: as §1, §2, §3, §4

[10] = test system: Wheat seeds; experiment: Preventative activity (anti-germination), seeds on agar in Petri dish; conditions: 0.35 g sprayed (benzyl alcohol pure, 700 L/Ha; glyphosate diluted at 0.5%)
Experimental: (§5) The assays were carried out on seeds sown on a Petri dish with respectively a control mode, an assay with benzyl alcohol and an assay with glyphosate herbicide (Gallup® super 360, Barclay).
(§6) The application of the product is carried out with a trigger spray bottle which makes it possible to spray 0.35 g of product per spraying, as microdroplets.
(§7) Seeds are placed on an agar gel in Petri dishes. 16 barley seeds, 24 rapeseed seeds, 18 wheat seeds, 10 maize seeds, 10 soybean seeds are positioned for each test.
(§8) The seeds are sprinkled either with 0.35 g water (equivalent 700 L/Ha) including 0.35 g pure benzyl alcohol (PanReac AppliChem—ITW Reagents) (equivalent 700 L/Ha pure benzyl alcohol), or with 0.35 g water for the control, or with 0.35 g glyphosate diluted at 0.5% for the glyphosate test.
(§9) The plants are observed at 0 and 11 days. The percentage of germination is the percentage of germinated seeds evaluated after 11 days.

[11] = test system: Maize seeds; experiment: as above; conditions: 0.35 g sprayed (benzyl alcohol pure, 700 L/Ha; glyphosate diluted at 0.5%)
Experimental: as §5, §6, §7, §8, §9

[12] = test system: Barley seeds; experiment: as above; conditions: 0.35 g sprayed (benzyl alcohol pure, 700 L/Ha; glyphosate diluted at 0.5%)
Experimental: as §5, §6, §7, §8, §9

[13] = test system: Soybean seeds; experiment: as above; conditions: 0.35 g sprayed (benzyl alcohol pure, 700 L/Ha; glyphosate diluted at 0.5%)
Experimental: as §5, §6, §7, §8, §9

[14] = test system: Rapeseed seeds; experiment: as above; conditions: 0.35 g sprayed (benzyl alcohol pure, 700 L/Ha; glyphosate diluted at 0.5%)
Experimental: as §5, §6, §7, §8, §9

[15] = test system: Petunia; experiment: Inter-row cultivation herbicide activity: effect on untreated adjacent plant; set-up: key: yes: the dose and the mode of use when use in intercrop cultivation is prescribed; indicates that it is not
Experimental: Pure benzyl alcohol was used (PanReac AppliChem—ITW Reagents).
Two plants (Petunia) were planted with a spacing of 20 cm. Only one of the plants is treated, either in a foliar manner or by sprinkling in different concentrations (10 L/Ha, 20 L/Ha, 50 L/Ha, 100 L/Ha, 200 L/Ha, 300 L/Ha, […], 500 L/Ha, 600 L/Ha).

[16] = test system: Brambles; experiment: Non-selective activity on brambles (spraying, potted); conditions: 12 g pure benzyl alcohol (600 L/Ha) in 16 g product (800 L/Ha)
Experimental: The assays were carried out on potted plants.
The application of the product is carried out with a trigger spray bottle which makes it possible to spray 1 g of product per spraying, as microdroplets. The treated plants are sprinkled with different quantities of water comprising different quantities of pure benzyl alcohol (PanReac AppliChem—ITW Reagents). The untreated (control) plants are sprinkled with the same total quantity of water only.
The brambles are sprinkled with: • 16 g of product (equivalent to 800 L/Ha) including 12 g pure benzyl alcohol for the treated plant (equivalent to 600 L/Ha pure benzyl alcohol), and • 16 g water for the control plants.
The collapsing of the plant, the colour intensity and the diameter of the plant were measured as indicated in Example 1.

SMILES: OCc1ccccc1 [benzyl alcohol]
- Collapsing of treated plant (score and time): time to pass from score 5 (T0) to score 1 [1]: 1 to 96 h
- Colour intensity of treated plant (score and time): time to pass from score 5 (T0) to score 1 [1]: 1 to 96 h
- Diameter of treated plant (score and time): time to pass from score 5 (T0) to score 1 [1]: 1 to 120 h
- Collapsing of treated plant (score and time): time to pass from score 5 (T0) to score 1 [2]: 1 to 24 h
- Colour intensity of treated plant (score and time): time to pass from score 5 (T0) to score 1 [2]: 1 to 24 h
- Diameter of treated plant (score and time): time to pass from score 5 (T0) to score 1 [2]: 1 to 48 h
- Collapsing of treated plant (score and time): time to pass from score 5 (T0) to score 1 [3]: 1 to 72 h
- Colour intensity of treated plant (score and time): time to pass from score 5 (T0) to score 1 [3]: 1 to 48 h
- Diameter of treated plant (score and time): time to pass from score 5 (T0) to score 1 [3]: 1 to 96 h
- Collapsing of treated plant (score and time): time to pass from score 5 (T0) to score 1 [4]: 1 to 24 h
- Colour intensity of treated plant (score and time): time to pass from score 5 (T0) to score 1 [4]: 1 to 24 h
- Diameter of treated plant (score and time): time to pass from score 5 (T0) to score 1 [4]: 1 to 24 h
- Collapsing of treated plant (score and time): time to pass from score 5 (T0) to score 1 [5]: 1 to 48 h
- Colour intensity of treated plant (score and time): time to pass from score 5 (T0) to score 1 [5]: 1 to 24 h
- Diameter of treated plant (score and time): time to pass from score 5 (T0) to score 1 [5]: 1 to 48 h
- Collapsing of treated plant (score and time): time to pass from score 5 (T0) to score 1 [6]: 1 to 96 h
- Colour intensity of treated plant (score and time): time to pass from score 5 (T0) to score 1 [6]: 1 to 48 h
- Diameter of treated plant (score and time): time to pass from score 5 (T0) to score 1 [6]: 1 to 96 h
- Collapsing of treated plant (score and time): time to pass from score 5 (T0) to score 1 [7]: 1 to 48 h
- Colour intensity of treated plant (score and time): time to pass from score 5 (T0) to score 1 [7]: 1 to 24 h
- Diameter of treated plant (score and time): time to pass from score 5 (T0) to score 1 [7]: 1 to 48 h
- Collapsing of treated plant (score and time): time to pass from score 5 (T0) to score 1 [8]: 1 to 48 h
- Colour intensity of treated plant (score and time): time to pass from score 5 (T0) to score 1 [8]: 1 to 24 h
- Diameter of treated plant (score and time): time to pass from score 5 (T0) to score 1 [8]: 1 to 72 h
- Collapsing of treated plant (score and time): time to pass from score 5 (T0) to score 1 [9]: 1 to 6 h
- Colour intensity of treated plant (score and time): time to pass from score 5 (T0) to score 1 [9]: 1 to 6 h
- Diameter of treated plant (score and time): time to pass from score 5 (T0) to score 1 [9]: 1 to 6 h
- Percentage of germination at 11 days [10]: 0%
- Percentage of germination at 11 days [11]: 0%
- Percentage of germination at 11 days [12]: 0%
- Percentage of germination at 11 days [13]: 0%
- Percentage of germination at 11 days [14]: 0%
- Inter-row use possible (untreated plant at 20 cm does not collapse) ([15]; foliar, 50 L/Ha): no
- Inter-row use possible (untreated plant at 20 cm does not collapse) ([15]; foliar, 100 L/Ha): no
- Inter-row use possible (untreated plant at 20 cm does not collapse) ([15]; foliar, 200 L/Ha): no
- Inter-row use possible (untreated plant at 20 cm does not collapse) ([15]; foliar, less than 50 L/Ha): no
- Inter-row use possible (untreated plant at 20 cm does not collapse) ([15]; sprinkling, 50 L/Ha): yes
- Inter-row use possible (untreated plant at 20 cm does not collapse) ([15]; sprinkling, 100 L/Ha): yes
- Inter-row use possible (untreated plant at 20 cm does not collapse) ([15]; sprinkling, 200 L/Ha): no
- Inter-row use possible (untreated plant at 20 cm does not collapse) ([15]; sprinkling, less than 50 L/Ha): yes
- Collapsing: time to pass from a score of 5 to a score of 1 [16]: 144 h
- Colour intensity: time to pass from a score of 5 to a score of 1 [16]: 96 h
